Data taken from patent publication US8461389B2, “Psycho-pharmaceuticals” (University College Dublin, National University of Ireland, …, priority 2008, dated 2013).

How the values were obtained:
Sigma 2 receptor = target: T1, Sigma 2 receptor (Homo sapiens, UniProt Q5BJF2); test: Novascreen receptor affinity screen (competition with reference ligand), Sigma 2; format: binding; conditions: 1 μM Captodiamine competing with a reference ligand; read-out: percent target inhibition, Sigma 2 receptor
T1 construct: Novascreen (contract screen)
Description: The Structure (FIG. 9A), receptor affinity (FIG. 9B), pharmacokinetics (FIG. 9C) and growth factor modulation (FIG. 9D) of Captodiamine are provided. Analysis of receptor affinities was performed by Novascreen™ and those displacing >20% of the natural ligand are indicated by the filled boxes. Blood levels of Captodiamine were determined by GC mass spectroscopy. In separate samples taken from a cannulated jugular at increasing time intervals following a single intraperitoneal injection of tha drug (5 mg/kg). Growth factor analysis was performed using tissue homogenates and ELISA assays specific for each growth factor (Promega). Values were analysed using a Student t-test and those with a p value<0.05 were accepted as significant and are indicated with an asterisk.
The higher the target inhibition value, the greater the affinity Captodiamine has for this particular receptor as it displaces a greater proportion of the reference ligand. This assay is an automated high throughput assay performed on cell lines that express only one type of receptor and was carried out by Novascreen (www.novascreen.com). Receptor affinity is a good starting point for determining the mechanism of action for a particular compound.

C57B16 mice [1] = test: Pre-pulse inhibition of the startle response; format: in vivo; conditions: i.p. once daily for 7 days; FIG. 5
Text: An example of one way of testing for PPI: In the prepulse inhibition (PPI) procedure, the rodent is placed in a small chamber and exposed to a brief pulse of noise. The test is used to assess the subject's ability to “gate” or filter environmental information. In the acoustic (startle model) of sensorimotor gating, a weak acoustic stimulus (ie, the prepulse) decreases the reflexive flinching response (startle) produced by a second, more intense, stimulus (the pulse).
The main three parts of the procedure are prepulse, startle stimulus, and startle reflex. Different prepulse-to-pulse intervals, or lead intervals, are used: 30, 60, 120, 240 and 480 ms. Lead interval counts from the start of prepulse to the start of the pulse. With the interval exceeding 500 ms, prepulse facilitation, such as increased response, is most likely to follow. Burst of white noise is usually used as acoustic startle stimulus. Typical durations are 20 ms for prepulse and 40 ms for pulse. […] Startle response is measured in rodents using the so-called automated “startle chambers” or “stabilimeter chambers”, with detectors recording whole-body reaction. In humans, the movements of oculomotor muscles (“eye-blink reflex” or “eye-blink response” assessed using electromyographic recording of orbicularis oculi muscle and by oculography) could be used as a measure. […]

C57B16 mice [2] = test: Forced swim test; format: in vivo; conditions: 3 and 5 mg/kg i.p.; FIGS. 10A and 10B
Description: • 1. Fill a 12 cm diameter glass cylinder to 10 cm with 22° C. water. • 2. Place two animals simultaneously in individual side-by-side cylinders separated by an opaque screen. • 3. Place mice in the cylinders for 6 minutes. • 4. Observe the behaviour of the mice for the last 4-minutes of the 6-minute experimental session. • 5. Sessions are videotaped and scored blind, Immobility is scored by summing the time spent immobile; movements necessary to maintain the animals head above water were not scored with data from treated groups compared with data from the control group using nonpaired Student's t tests (two tailed). • 6. Animals are dried with paper towels and heat lamps. FST in Rats: Habituation Session (Day 1) • 1. On Day 1, […] prior to testing, place the animals in the experimental room 60 min before the beginning of the habituation session. Randomly assign animals to a drug treatment, but give all animals within a cage the same treatment. Make food and water available throughout the experiment. • 2. Weigh two animals individually, then place one rat in each of the two cylinders (20 cm in diameter×40 cm high) containing water (25° C.) for 15 min (habituation session). No scoring of immobility is performed during the habituation session. […]
Values are expressed as mean±S.E.M (n=8). Statistical difference was determined using a Mann Whitney non-parametric U-test. […]

T1 sequence (Q5BJF2 whole entry, species assumed): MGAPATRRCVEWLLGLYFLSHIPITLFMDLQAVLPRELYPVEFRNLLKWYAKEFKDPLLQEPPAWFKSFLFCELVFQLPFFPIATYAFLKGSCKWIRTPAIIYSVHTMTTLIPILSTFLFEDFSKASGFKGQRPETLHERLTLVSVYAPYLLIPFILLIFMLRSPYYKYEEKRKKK

What does the source list for `CCCCSc1ccc(C(SCCN(C)C)c2ccccc2)cc1` (stereo not drawn) [Captodiamine, 2-[(4-butylsulfanylphenyl)-phenyl-methyl]sulfanyl-N,N-dimethyl-ethanamin]?
inhibition at 1 µM (Sigma 2 receptor): > 20%; pre-pulse inhibition of startle (C57B16 mice [1]): no effect; time to immobility in the forced swim test (C57B16 mice [2]): significant increase on time to immobility
